ChEMBL document CHEMBL4145573, “Antinociceptive Diterpenoids from the Leaves and Twigs of Rhododendron decorum” (2018)
Calls of active or inactive are those of the source. No cut-off for these calls is given here.

How the values were obtained:
Mus musculus [1] = assay: Antinociceptive activity in Kunming mouse assessed as inhibition of acetic acid-induced writhes at 10 mg/kg, ip pretreated for 15 mins followed by acetic acid challenge measured for 30 mins; assay type: functional, organism-based
Mus musculus [2] = assay: Antinociceptive activity in Kunming mouse assessed as inhibition of acetic acid-induced writhes at 0.8 mg/kg, ip pretreated for 15 mins followed by acetic acid challenge measured for 30 mins relative to control; assay type: functional
Mus musculus [3] = assay: Antinociceptive activity in Kunming mouse assessed as inhibition of acetic acid-induced writhes at 0.08 mg/kg, ip pretreated for 15 mins followed by acetic acid challenge measured for 30 mins relative to control; assay type: functional

Row | SMILES | inhibition (Mus musculus [1]) | further results
1 | C=C1[C@H]2C[C@@H](O)C(C)(C)[C@H](O)[C@@H]2C[C@@]23C[C@@](O)(CC[C@@H]12)[C@](C)(O)C3 | Active | 
2 | C=C1[C@H]2CC[C@]3(O)C[C@@]2(C[C@@H](O)[C@@]2(O)[C@H]1C[C@H](O)C2(C)C)C[C@@]3(C)O | Active | 
3 | CN1CC[C@]23c4c5ccc(O)c4O[C@H]2[C@@H](O)C=C[C@H]3[C@H]1C5 [MORPHINE] |  | inhibition in vivo at 0.8 mg/kg (Mus musculus [2]): 86%
4 | CC1(C)[C@H]2O[C@H]2[C@H]2[C@](C)(O)[C@@H]3CC[C@]4(O)C[C@@]3(C[C@@H](O)[C@@]21O)C[C@@]4(C)O |  | inhibition in vivo at 0.08 mg/kg (Mus musculus [3]): 78%
5 | CC1(C)[C@@H](O)[C@H](O)[C@H]2[C@](C)(O)[C@@H]3CC[C@]4(O)C[C@@]3(C[C@@H](O)[C@@]21O)C[C@@]4(C)O |  | inhibition in vivo at 0.8 mg/kg (Mus musculus [2]): 68%
6 | C=C1[C@@H]2[C@@H](O)[C@H](O)C(C)(C)[C@@]2(O)[C@H](O)C[C@@]23C[C@@](O)(CC[C@@H]12)[C@](C)(O)C3 | Active | 
7 | C=C1C[C@]23C[C@H]1CC[C@H]2C(=C)[C@@H]1C[C@H](O[C@@H]2O[C@H](CO)[C@@H](O)[C@H](O)[C@H]2O)C(C)(C)[C@@]1(O)[C@H](O)C3 | Active | 
